# Reference: ChEMBL document CHEMBL4725351, “Cyclic Derivative of Host-Defense Peptide IDR-1018 Improves Proteolytic Stability, Suppresses Inflammation, and Enhances In Vivo Activity” (J Med Chem, 2020)
# Active and inactive are the calls of the source. The rule behind the calls is not given here. Where a SMILES comes first, the peptide text is derived from it. Bridges are numbered along the chain shown (N, C = ends).
# Columns and labels:
# Pseudomonas aeruginosa [1] = test: Antibiofilm activity against Pseudomonas aeruginosa PA14 incubated for 24 hrs under shaking condition by turbidometric method; format: functional
# Staphylococcus aureus [2] = test: Antibacterial activity against methicillin-resistant Staphylococcus aureus USA300 LAC measured after overnight incubation by microtitre plate based spectrophotometric method; format: functional
# [3] = Aggregation property of the compound in water at 1 mg/ml by turbidimetric method; format: physicochemical; settings: buffer
# Acinetobacter baumannii [4] = test: Antibiofilm activity against Acinetobacter baumannii 17918 incubated for 24 hrs under shaking condition by turbidometric method; format: functional
# Acinetobacter baumannii [5] = test: Antibacterial activity against Acinetobacter baumannii 5015 measured after overnight incubation by microtitre plate based spectrophotometric method; format: functional
# Trypsin [6] = molecular target: T1, Trypsin (Homo sapiens, UniProt P07477+P07478+P35030); test: Stability of the compound in pH 8.2 ammonium bicarbonate buffer assessed as trypsin (unknown origin)-mediated drug degradation at 20 ug/ml measured up to 120 mins by MALDI-TOF analysis; format: ADME, protein assay; settings: pH 8.2, 2 h, at 20 µg/mL
# Pseudomonas aeruginosa [7] = test: Antibacterial activity against Pseudomonas aeruginosa PAO1 measured after overnight incubation by microtitre plate based spectrophotometric method; format: functional
# Staphylococcus aureus [8] = test: Antibacterial activity against Staphylococcus aureus USA300 LAC infected in CD1 mouse assessed as reduction in dermonecrosis at 7.5 mg/kg, sc administered at infection site measured after 3 days by caliper method relative to control; format: functional; settings: time 3.0 day
# PBMC [9] = test: Immunomodulatory activity in human PBMC assessed as increase in LPS-induced IL1RA production at 25 ug/ml measured after overnight incubation by ELISA; format: functional; settings: dose 25.0 µg/ml
# Pseudomonas aeruginosa [10] = test: Antibacterial activity against Pseudomonas aeruginosa PA14 measured after overnight incubation by microtitre plate based spectrophotometric method; format: functional
# [11] = Cytotoxicity against human PBMC assessed as reduction in cell viability at 100 ug/ml measured after 24 hrs by LDH assay; format: tissue-based; settings: dose 100 µg/ml
# PBMC [12] = test: Immunomodulatory activity in human PBMC assessed as increase in MCP1 production at 25 ug/ml measured after overnight incubation by ELISA; format: functional, tissue-based; settings: dose 25.0 µg/ml
# Staphylococcus aureus [13] = test: Antibacterial activity against Staphylococcus aureus USA300 LAC infected in CD1 mouse assessed as reduction in bacterial load at 7.5 mg/kg, sc administered at infection site measured after 3 days by colony counting method relative to control; format: functional; settings: time 3.0 day
# Escherichia coli [14] = test: Antibacterial activity against Escherichia coli ATTC 489 measured after overnight incubation by microtitre plate based spectrophotometric method; format: functional
# [15] = Aggregation property of the compound in sodium phosphate solution at 10 mM by turbidimetric method; format: physicochemical; settings: 10000 µM
# Klebsiella pneumoniae [16] = test: Antibacterial activity against Klebsiella pneumoniae ATTC 13883 measured after overnight incubation by microtitre plate based spectrophotometric method; format: functional
# Trypsin [17] = molecular target: T1, Trypsin; test: Stability of the compound in pH 8.2 ammonium bicarbonate buffer assessed as trypsin (unknown origin)-mediated drug degradation at 20 ug/ml measured up to 120 mins by RP-HPLC analysis; format: ADME, protein assay; settings: pH 8.2, 2 h, at 20 µg/mL
# [18] = Aggregation property of the compound in 5% dextrose at 1 mg/ml by turbidimetric method; format: physicochemical
# [19] = Toxicity in CD1 mouse assessed as precipitation under the skin at 10 mg/kg, sc measured after 16 hrs; format: organism-based; settings: in vivo
# Acinetobacter baumannii [20] = test: Antibacterial activity against Acinetobacter baumannii 17918 measured after overnight incubation by microtitre plate based spectrophotometric method; format: functional
# [21] = Aggregation property of the compound in sodium citrate solution at 10 mM by turbidimetric method; format: physicochemical; settings: 10000 µM
# PBMC [22] = test: Immunomodulatory activity in human PBMC assessed as change in TNFalpha production at 25 ug/ml measured after overnight incubation by ELISA; format: functional, tissue-based; settings: dose 25.0 µg/ml
# PBMC [23] = test: Immunomodulatory activity in human PBMC assessed as reduction in LPS-induced IL1beta production at 25 ug/ml measured after overnight incubation by ELISA; format: functional, tissue-based; settings: dose 25.0 µg/ml
# [24] = Aggregation property of the compound in saline at 1 mg/ml by turbidimetric method; format: physicochemical; settings: buffer
# Staphylococcus aureus [25] = test: Antibacterial activity against methicillin-resistant Staphylococcus aureus SAP0017 measured after overnight incubation by microtitre plate based spectrophotometric method; format: functional
# PBMC [26] = test: Immunomodulatory activity in human PBMC assessed as increase in IL-1RA production at 25 ug/ml measured after overnight incubation by ELISA; format: functional, tissue-based; settings: dose 25.0 µg/ml
# [27] = Aggregation property of the compound in RPMI medium with 1% FBS at 1 mg/ml by turbidimetric method; format: physicochemical
# Escherichia coli [28] = test: Antibiofilm activity against Escherichia coli ATTC 489 incubated for 24 hrs under shaking condition by turbidometric method; format: functional
# Staphylococcus aureus [29] = test: Antibiofilm activity against methicillin-resistant Staphylococcus aureus USA300 LAC incubated for 24 hrs under shaking condition by turbidometric method; format: functional
# [30] = Aggregation of the compound in human PBMC assessed as amorphous morphology at 50 ug/ml measured after 4 hrs by microscopic analysis; format: ADME, tissue-based; settings: dose 50 µg/ml
# Klebsiella pneumoniae [31] = test: Antibiofilm activity against Klebsiella pneumoniae ATTC 13883 incubated for 24 hrs under shaking condition by turbidometric method; format: functional
# Pseudomonas aeruginosa [32] = test: Antibiofilm activity against Pseudomonas aeruginosa PAO1 incubated for 24 hrs under shaking condition by turbidometric method; format: functional
# Staphylococcus aureus [33] = test: Antibiofilm activity against methicillin-resistant Staphylococcus aureus SAP0017 incubated for 24 hrs under shaking condition by turbidometric method; format: functional
# PBMC [34] = test: Immunomodulatory activity in human PBMC assessed as reduction in LPS-induced TNFalpha production at 25 ug/ml measured after overnight incubation by ELISA; format: functional, tissue-based; settings: dose 25.0 µg/ml
# Acinetobacter baumannii [35] = test: Antibiofilm activity against Acinetobacter baumannii 5015 incubated for 24 hrs under shaking condition by turbidometric method; format: functional
# PBMC [36] = test: Immunomodulatory activity in human PBMC assessed as increase in LPS-induced IL10 production at 25 ug/ml measured after overnight incubation by ELISA; format: functional; settings: dose 25.0 µg/ml
# [37] = Immunomodulatory activity in human PBMC assessed as increase in LPS-induced MCP1 production at 25 ug/ml measured after overnight incubation by ELISA; format: functional; settings: dose 25 µg/ml
# [38] = Aggregation property of the compound in sodium nitrate solution at 10 mM by turbidimetric method; format: physicochemical; settings: 10000 µM
# Pseudomonas aeruginosa [39] = test: Antibiofilm activity against 24 hrs preformed Pseudomonas aeruginosa PA14 biofilm assessed as reduction in biofilm viability at 7.2 to 30.3 uM by TTC assay relative to control; format: functional; settings: dose microM 7.2-30.3
# Klebsiella pneumoniae [40] = test: Antibiofilm activity against 24 hrs preformed Klebsiella pneumoniae ATTC 13883 biofilm assessed as reduction in biofilm viability at 7.2 to 30.3 uM by TTC assay relative to control; format: functional; settings: dose microM 7.2-30.3
# Pseudomonas aeruginosa [41] = test: Antibiofilm activity against 24 hrs preformed Pseudomonas aeruginosa PAO1 biofilm assessed as reduction in biofilm viability at 7.2 to 30.3 uM by TTC assay relative to control; format: functional; settings: dose microM 7.2-30.3
# Acinetobacter baumannii [42] = test: Antibiofilm activity against 24 hrs preformed Acinetobacter baumannii 17918 biofilm assessed as reduction in biofilm viability at 7.2 to 30.3 uM by TTC assay relative to control; format: functional; settings: dose microM 7.2-30.3
# Acinetobacter baumannii [43] = test: Antibiofilm activity against 24 hrs preformed Acinetobacter baumannii 5015 biofilm assessed as reduction in biofilm viability at 7.2 to 30.3 uM by TTC assay relative to control; format: functional; settings: dose microM 7.2-30.3
# Trypsin [44] = molecular target: T1, Trypsin; test: Stability of the compound in pH 8.2 ammonium bicarbonate buffer assessed as trypsin (unknown origin)-ILPWK formation at 20 ug/ml measured within 30 mins by MALDI-TOF analysis; format: ADME, protein assay; settings: pH 8.2, 0.5 h, dose 20 µg/ml
# Staphylococcus aureus [45] = test: Antibacterial activity against Staphylococcus aureus USA300 LAC infected in CD1 mouse assessed as dermonecrosis area at 7.5 mg/kg, sc administered at infection site measured after 3 days by caliper method (Rvb > 75 mm2); format: functional; settings: time 3 day
# Escherichia coli [46] = test: Antibiofilm activity against 24 hrs preformed Escherichia coli ATTC 489 biofilm assessed as reduction in biofilm viability at 7.2 to 30.3 uM by TTC assay relative to control; format: functional; settings: dose microM 7.2-30.3
# Trypsin [47] = molecular target: T1, Trypsin; test: Stability of the compound in pH 8.2 ammonium bicarbonate buffer assessed as trypsin (unknown origin)-mediated drug degradation at 20 ug/ml measured after 120 mins by RP-HPLC analysis; format: ADME, protein assay; settings: buffer, pH 8.2, 2 h, at 20 µg/mL
# Trypsin [48] = molecular target: T1, Trypsin; test: Stability of the compound in pH 8.2 ammonium bicarbonate buffer assessed as trypsin (unknown origin)-mediated compound cleavage at carboxy-terminal side of arginine at 20 ug/ml measured within 30 mins by RP-HPLC analysis; format: ADME, protein assay; settings: pH 8.2, 0.5 h, at 20 µg/mL
molecule,measurement,setting,value
CC[C@H](C)[C@@H]1NC(=O)[C@H](CCCNC(=N)N)NC(=O)[C@H](C(C)C)NC(=O)[C@H](C)NC(=O)[C@H](C(C)C)NC(=O)[C@H]([C@@H](C)CC)NC(=O)[C@H](CC(C)C)NC(=O)[C@H](CCCNC(=N)N)NC(=O)[C@H](C(C)C)NC(=O)[C@@H](N)CSSC[C@@H](C(N)=O)NC(=O)[C@H](CCCNC(=N)N)NC(=O)[C@H](CCCNC(=N)N)NC(=O)[C@H](Cc2c[nH]c3ccccc23)NC1=O (H-CVRLIVAVRIWRRC-NH2; disulfide 1-14),MBEC,Pseudomonas aeruginosa [1],57.4 µM
same,MIC,Staphylococcus aureus [2],28.7 µM
same,Activity,[3],Not Active
same,MBEC,Acinetobacter baumannii [4],57.4 µM
same,MIC,Acinetobacter baumannii [5],57.4 µM
same,Stabilty,Trypsin [6],Stable
same,MIC,Pseudomonas aeruginosa [7],57.4 µM
same,Activity,Staphylococcus aureus [8],inactive
same,Activity,PBMC [9],Active
same,MIC,Pseudomonas aeruginosa [10],57.4 µM
same,Activity,[11],Toxic
same,Activity,PBMC [12],Active
same,Activity,Staphylococcus aureus [13],inactive
same,MIC,Escherichia coli [14],28.7 µM
same,Activity,[15],Active
same,MIC,Klebsiella pneumoniae [16],28.7 µM
same,Stabilty,Trypsin [17],Stable
same,Activity,[18],Not Active
same,Activity,[19],Toxic
same,MIC,Acinetobacter baumannii [20],57.4 µM
same,Activity,[21],Active
same,Activity,PBMC [22],inactive
same,Activity,PBMC [23],Active
same,Activity,[24],Not Active
same,MIC,Staphylococcus aureus [25],28.7 µM
same,Activity,PBMC [26],Active
same,Activity,[27],Active
same,MBEC,Escherichia coli [28],36.7 µM
same,MBEC,Staphylococcus aureus [29],18.3 µM
same,Activity,[30],Not Active
same,MBEC,Klebsiella pneumoniae [31],28.7 µM
same,MBEC,Pseudomonas aeruginosa [32],57.4 µM
same,MBEC,Staphylococcus aureus [33],18.3 µM
same,Activity,PBMC [34],Active
same,MBEC,Acinetobacter baumannii [35],57.4 µM
same,Activity,PBMC [36],Active
same,Activity,[37],35%
same,Activity,[38],Active
H-VRLIVAVRIWRR-NH2,MBEC,Pseudomonas aeruginosa [1],16.2 µM
same,MIC,Staphylococcus aureus [2],32.5 µM
same,Activity,[3],Not Active
same,MBEC,Acinetobacter baumannii [4],16.2 µM
same,MIC,Acinetobacter baumannii [5],32.5 µM
same,Stabilty,Trypsin [6],Stable
same,MIC,Pseudomonas aeruginosa [7],32.5 µM
same,MIC,Pseudomonas aeruginosa [10],32.5 µM
same,Activity,Pseudomonas aeruginosa [39],70%
same,Activity,[11],Toxic
same,Activity,PBMC [12],Active
same,MIC,Escherichia coli [14],65.8 µM
same,Activity,[15],Active
same,MIC,Klebsiella pneumoniae [16],16.2 µM
same,Stabilty,Trypsin [17],Stable
same,Activity,[18],Not Active
same,Activity,[19],Toxic
same,MIC,Acinetobacter baumannii [20],32.5 µM
same,Activity,[21],Active
same,Activity,PBMC [22],inactive
same,Activity,Klebsiella pneumoniae [40],70%
same,Activity,PBMC [23],Active
same,Activity,Pseudomonas aeruginosa [41],70%
same,Activity,[24],Not Active
same,MIC,Staphylococcus aureus [25],32.5 µM
same,Activity,Acinetobacter baumannii [42],70%
same,Activity,PBMC [26],Active
same,Activity,Acinetobacter baumannii [43],70%
same,Activity,[27],Active
same,MBEC,Escherichia coli [28],10.4 µM
same,Drug metabolism,Trypsin [44],Metabolite_Detected
same,Activity,Staphylococcus aureus [45],30 mm2
same,MBEC,Staphylococcus aureus [29],7.8 µM
same,Activity,[30],Active
same,MBEC,Klebsiella pneumoniae [31],10.4 µM
same,Activity,Escherichia coli [46],70%
same,MBEC,Pseudomonas aeruginosa [32],16.2 µM
same,Stabilty,Trypsin [47],Unstable
same,Activity,PBMC [34],Active
same,MBEC,Acinetobacter baumannii [35],16.2 µM
same,Stabilty,Trypsin [48],Unstable
same,Activity,[37],35%
same,Activity,[38],Active
